Experimental data reported in patent EP0009655A1, “6-Amino substituted N-pyrrolyl-3-pyridazine amines, their preparation, and pharmaceutically antihypertensive compositions containing them” (priority 1978, dated 1980).

Experiments:
[1] = test system: spontaneous hypertensive rats (MHR: Milano hypertensive rats); assay: Antihypertensive activity in spontaneous hypertensive rats (systolic blood pressure); assay type: in vivo; conditions: dose of 5 mg/kg
[2] = test system: renal hypertensive dogs; assay: Antihypertensive activity in conscious renal hypertensive dogs (systolic arterial blood pressure, indirect method on the tail); assay type: in vivo; conditions: for maximum systolic blood pressure drop / time of maximum systolic blood pressure drop / blood pressure drop after seven hours: dose of 2 mg/kg; for blood pressure drop after seven hours: seven hours after administration
Experimental: The antihypertensive activity of the compounds of the invention was shown in representative tests on spontaneous hypertensive rats and in renal hypertensive dogs. In representative experiments with renal hypertensive dogs, effective amounts(1 to 4 mg/kg) of compounds of examples 3, 4, 5, 6, 8, 13, 14 and 15 were administered p.o. to the conscious hypertensive animals. The systolic arterial blood pressure was measured by the indirect method on the tail before and 1, 3, 5 and 7 hours after treatment.
The drop of the systolic blood pressure ranged between 20 and 70 mm Hg, depending on the specific compound tested and on the time at which the blood pressure was observed. In general the antihypertensive effect started about 3 hours after treatment and the maximum effect was still persistent 7 hours after treatment.

[3] = Acute toxicity, LD50 p.o.; conditions: mouse, in vivo, po

SMILES	blood pressure drop [1] [mm Hg]	drop of the systolic blood pressure ([2]; 1 mg/kg p.o.) [mm Hg]	drop of the systolic blood pressure ([2]; 4 mg/kg p.o.) [mm Hg]	maximum systolic blood pressure drop [2] [mm Hg]	time of maximum systolic blood pressure drop [2]	blood pressure drop after seven hours [2] [mm Hg]	LD50 [3] [mg/kg]
Cc1ccc(C)n1Nc1ccc(N2CCOCC2)nn1 [Example 3, N-(2,5-Dimethyl-1H-pyrrol-1-yl)-6-morpholino-3-pyridazineamine]	38	50	70	52	about three	48	~800
NNc1nncc2ccccc12 [hydralazine, 1-hydrazinophthalazine, reference compound]				41	about one	29	
